From ChEMBL document CHEMBL3865835, “α-Glucosidase and α-Amylase Inhibitors from Arcytophyllum thymifolium” (J Nat Prod, 2016) come the findings set out here.

The source made the active and inactive calls. The calls are words filed in the database; no cut-off is given here.

The nature of test [1]: (§1) Inhibition of Saccharomyces cerevisiae alpha-glucosidase using 4-nitrophenyl alpha-D-glucopyranoside as substrate after 10 mins by UV-Vis spectrophotometric analysis.
In test [2] the target is T1, Pancreatic alpha-amylase (Sus scrofa) (UniProt P00690).
T1 sequence (whole entry): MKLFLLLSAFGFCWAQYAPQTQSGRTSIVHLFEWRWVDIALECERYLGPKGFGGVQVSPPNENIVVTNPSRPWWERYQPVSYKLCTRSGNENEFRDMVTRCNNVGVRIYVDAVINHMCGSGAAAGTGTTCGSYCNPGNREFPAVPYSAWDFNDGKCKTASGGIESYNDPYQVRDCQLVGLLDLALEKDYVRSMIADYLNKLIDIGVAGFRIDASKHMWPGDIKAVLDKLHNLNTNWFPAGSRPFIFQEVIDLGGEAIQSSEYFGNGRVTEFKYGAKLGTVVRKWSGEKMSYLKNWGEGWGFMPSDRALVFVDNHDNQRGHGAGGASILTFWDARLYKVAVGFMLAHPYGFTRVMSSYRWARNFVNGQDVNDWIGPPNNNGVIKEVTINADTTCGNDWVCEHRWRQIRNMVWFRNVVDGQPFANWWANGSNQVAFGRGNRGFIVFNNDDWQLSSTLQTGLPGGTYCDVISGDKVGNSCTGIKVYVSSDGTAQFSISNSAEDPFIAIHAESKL
Kind of test: (§2) Inhibition of hog pancreas alpha-amylase using starch as substrate preincubated for 10 mins followed by substrate addition measured after 10 mins by dinitrosalicylic acid color reagent-based UV-Vis spectrophotometric analysis.

The subject of test [3] is Saccharomyces cerevisiae. Described as §1.
The target of another test is T2, Pancreatic alpha-amylase (Sus scrofa, UniProt P00690).
T2 sequence (P00690 whole entry): T1 sequence (whole entry)
Described as §2.

The test system of test [4] is Saccharomyces cerevisiae. Description: Potency index, ratio of acarbose IC50 to compound IC50 for Saccharomyces cerevisiae alpha-glucosidase.

Compound `C[C@H]1O[C@H](O[C@H]2[C@H](O)[C@@H](O)[C@@H](O[C@H]3[C@H](O)[C@@H](O)C(O)O[C@@H]3CO)O[C@@H]2CO)[C@H](O)[C@@H](O)[C@@H]1N[C@H]1C=C(CO)[C@@H](O)[C@H](O)[C@H]1O` (some centres not stated) [ACARBOSE] came in with an IC50 in test [1] of 403 µM.

Take `O=C(O)C1=CO[C@@H](O[C@@H]2O[C@H](CO)[C@@H](O)[C@H](O)[C@H]2O)[C@@H]2C(CO)=C[C@@H](O)[C@H]12`: the inhibition result in test [2] was “Active”.

As for `O=c1c(O[C@@H]2O[C@H](CO)[C@H](O)[C@H](O)[C@H]2O[C@@H]2O[C@H](CO)[C@@H](O)[C@H](O)[C@H]2O)c(-c2ccc(O)cc2)oc2cc(O)cc(O)c12`, the inhibition result in test [2] is “Active”.

Regarding `C[C@]1(CO)Oc2c(O)cc3ccc(=O)oc3c2C=C1O`, the inhibition entry in test [2] was “Active”.

As for `C=C(C)C(O)Cc1c(O)c(OC)cc2ccc(=O)oc12` (configuration not stated), the inhibition entry (with Saccharomyces cerevisiae [3]; in test [2]) was “Active” each time.

In the case of `C=C(C)[C@H]1Cc2c(c(O)cc3ccc(=O)oc23)O1`, the inhibition result (with Saccharomyces cerevisiae [3]; in test [2]) was “Active” throughout.

For the compound `CC(=O)OCC1=C[C@@H]2OC(=O)C3=CO[C@@H](O[C@@H]4O[C@H](CO)[C@@H](O)[C@H](O)[C@H]4O)[C@H]1[C@@H]32`, the inhibition result in test [2] was “Active”.

Turning to `COc1cc2ccc(=O)oc2c2c1O[C@](C)(CO)C(O)=C2`, the inhibition result (in the test with Saccharomyces cerevisiae [3]; in test [2]) was “Active” throughout.

Turning to `COc1cc(O)c2c(=O)c(O)c(-c3ccc(O)c(O)c3)oc2c1` [RHAMNETIN], at Pancreatic alpha-amylase, it took 73.9 µM to reach half-maximal inhibition (IC50).

`O=C(/C=C/c1ccc(O)c(O)c1)O[C@@H]1C[C@](O)(C(=O)O)C[C@@H](O)[C@H]1O`: the inhibition result in test [2] is “Active”.

`CC(C)=CCOc1cc(O)c2c(c1)O[C@H](c1ccc(O)c(O)c1)CC2=O`: the Ratio IC50 in the test on Saccharomyces cerevisiae [4] stood at 10. In addition, it took 28.1 µM to reach half-maximal inhibition in test [1] (IC50).

On to `CC(=O)OCC1=C[C@H](O)[C@@H]2C(C(=O)O)=CO[C@@H](O[C@@H]3O[C@H](CO)[C@@H](O)[C@H](O)[C@H]3O)[C@H]12`, for which the IC50 against Pancreatic alpha-amylase was 69.4 µM.

Consider `COc1cc2ccc(=O)oc2c(O)c1O`, for which the inhibition result in the test with Saccharomyces cerevisiae [3] is “Active”.
